Measured values reported in US8962843B2, “1,3,4-oxadiazole and 1,3,4-thiadiazole beta-lactamase inhibitors” (priority 2012, dated 2015).
Counter-ions that a name gives are not always drawn.

What was measured:
[1] = tested on: bacterial strains that express the class D cephalosporinase OXA-15; experiment: Standard BLI potentiation MIC / synergy MIC assays, strains expressing OXA-15; type: cell-based, E. coli; conditions: in combination with a β-lactam; comparator Avibactam (CCC)
In short: (§1)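 Broth microdilution in cation-adjusted Mueller Hinton broth per CLSI M07-A9, ~10^5 CFU/mL, 18-20 h at 37 °C with aeration; engineered E. coli carrying β-lactamase plasmids kept on 25 μg/mL tetracycline. β-lactam MIC measured in 2-fold dilutions (128-0.13 μg/mL) with BLI fixed at 4 μg/mL; sMIC titrates BLI against a fixed β-lactam concentration. MIC = lowest concentration without visible turbidity.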

[2] = tested on: bacterial strains that express KPC β-lactamases; experiment: Standard BLI potentiation MIC / synergy MIC assays, strains expressing KPC β-lactamases; type: cell-based; conditions: in combination with a β-lactam; comparator Avibactam
In short: as §1

Row | Structure (SMILES) | activity against bacterial strains that express the class D cephalosporinase OXA-15, compared with Avibactam [1] | activity and/or spectrum of activity against bacterial strains that express KPC β-lactamases, compared with Avibactam [2]
1 | N=C(N)NCc1nnc([C@@H]2CC[C@@H]3CN2C(=O)N3OS(=O)(=O)O)s1 [Compound 721, (2S,5R)-2-(5-(guanidinomethyl)-1,3,4-thiadiazol-2-yl)-7-oxo-1,6-diazabicyclo[3.2.1]octan-6-yl hydrogen sulfate] | more active than Avibactam | more active than Avibactam for at least one, bacterial strain that expresses KPC β-lactamase and/or show a better spectrum of activity
2 | N[C@H]1C[C@H](c2nnc([C@@H]3CC[C@@H]4CN3C(=O)N4OS(=O)(=O)O)o2)C1 [Compound 727, (2S,5R)-2-(5-((1r,3S)-3-aminocyclobutyl)-1,3,4-oxadiazol-2-yl)-7-oxo-1,6-diazabicyclo[3.2.1]octan-6-yl hydrogen sulfate] | more active than Avibactam | more active than Avibactam for at least one, bacterial strain that expresses KPC β-lactamase and/or show a better spectrum of activity
3 | N=C(N)Nc1nnc([C@@H]2CC[C@@H]3CN2C(=O)N3OS(=O)(=O)O)o1 [Compound 738, (2S,5R)-2-(5-guanidino-1,3,4-oxadiazol-2-yl)-7-oxo-1,6-diazabicyclo[3.2.1]octan-6-yl hydrogen sulfate] | more active than Avibactam | more active than Avibactam for at least one, bacterial strain that expresses KPC β-lactamase and/or show a better spectrum of activity
4 | N[C@H]1C[C@@H](c2nnc([C@@H]3CC[C@@H]4CN3C(=O)N4OS(=O)(=O)O)s2)C1 [Compound 795, (2S,5R)-2-(5-((1s,3R)-3-aminocyclobutyl)-1,3,4-thiadiazol-2-yl)-7-oxo-1,6-diazabicyclo[3.2.1]octan-6-yl hydrogen sulfate] | more active than Avibactam | more active than Avibactam for at least one, bacterial strain that expresses KPC β-lactamase and/or show a better spectrum of activity
5 | N=C(N)NCC1(c2nnc([C@@H]3CC[C@@H]4CN3C(=O)N4OS(=O)(=O)O)o2)CC1 [Compound 723, (2S,5R)-2-(5-(1-(guanidinomethyl)cyclopropyl)-1,3,4-oxadiazol-2-yl)-7-oxo-1,6-diazabicyclo[3.2.1]octan-6-yl hydrogen sulfate] | more active than Avibactam | more active than Avibactam for at least one, bacterial strain that expresses KPC β-lactamase and/or show a better spectrum of activity
6 | CNCCCc1nnc([C@@H]2CC[C@@H]3CN2C(=O)N3OS(=O)(=O)O)o1 [Compound 734, (2S,5R)-2-(5-β-(methylamino)propyl)-1,3,4-oxadiazol-2-yl)-7-oxo-1,6-diazabicyclo[3.2.1]octan-6-yl hydrogen sulfate] | more active than Avibactam | more active than Avibactam for at least one, bacterial strain that expresses KPC β-lactamase and/or show a better spectrum of activity
7 | N=C(N)N[C@H]1C[C@@H](c2nnc([C@@H]3CC[C@@H]4CN3C(=O)N4OS(=O)(=O)O)s2)C1 [Compound 784, (2S,5R)-2-(5-((1s,3R)-3-guanidinocyclobutyl)-1,3,4-thiadiazol-2-yl)-7-oxo-1,6-diazabicyclo[3.2.1]octan-6-yl hydrogen sulfate] | more active than Avibactam | more active than Avibactam for at least one, bacterial strain that expresses KPC β-lactamase and/or show a better spectrum of activity
8 | N[C@H]1C[C@H](Cc2nnc([C@@H]3CC[C@@H]4CN3C(=O)N4OS(=O)(=O)O)o2)C1 [Compound 751, (2S,5R)-2-(5-(((1r,3S)-3-aminocyclobutyl)methyl)-1,3,4-oxadiazol-2-yl)-7-oxo-1,6-diazabicyclo[3.2.1]octan-6-yl hydrogen sulfate] | more active than Avibactam | more active than Avibactam for at least one, bacterial strain that expresses KPC β-lactamase and/or show a better spectrum of activity
9 | NCCCc1nnc([C@@H]2CC[C@@H]3CN2C(=O)N3OS(=O)(=O)O)o1 [Compound 720, (2S,5R)-2-(5-(3-aminopropyl)-1,3,4-oxadiazol-2-yl)-7-oxo-1,6-diazabicyclo[3.2.1]octan-6-yl hydrogen sulfate] | more active than Avibactam | more active than Avibactam for at least one, bacterial strain that expresses KPC β-lactamase and/or show a better spectrum of activity
10 | NCc1nnc([C@@H]2CC[C@@H]3CN2C(=O)N3OS(=O)(=O)O)o1 [Compound 702, (2S,5R)-2-(5-(aminomethyl)-1,3,4-oxadiazol-2-yl)-7-oxo-1,6-diazabicyclo[3.2.1]octan-6-yl hydrogen sulfate] | more active than Avibactam | more active than Avibactam for at least one, bacterial strain that expresses KPC β-lactamase and/or show a better spectrum of activity
11 | O=C1N2C[C@@H](CC[C@H]2c2nnc(CCNC3CCNCC3)o2)N1OS(=O)(=O)O [Compound 770, (2S,5R)-7-oxo-2-(5-(2-(piperidin-4-ylamino)ethyl)-1,3,4-oxadiazol-2-yl)-1,6-diazabicyclo[3.2.1]octan-6-yl hydrogen sulfate] | more active than Avibactam | more active than Avibactam for at least one, bacterial strain that expresses KPC β-lactamase and/or show a better spectrum of activity
12 | N=C(N)N[C@H]1C[C@@H](c2nnc([C@@H]3CC[C@@H]4CN3C(=O)N4OS(=O)(=O)O)o2)C1 [Compound 749, (2S,5R)-2-(5-((1s,3R)-3-guanidinocyclobutyl)-1,3,4-oxadiazol-2-yl)-7-oxo-1,6-diazabicyclo[3.2.1]octan-6-yl hydrogen sulfate] | more active than Avibactam | more active than Avibactam for at least one, bacterial strain that expresses KPC β-lactamase and/or show a better spectrum of activity
13 | O=C1N2C[C@@H](CC[C@H]2c2nnc([C@H]3[C@@H]4CNC[C@@H]43)o2)N1OS(=O)(=O)O [Compound 740, (2S,5R)-2-(5-(3-azabicyclo[3.1.0]hexan-6-yl)-1,3,4-oxadiazol-2-yl)-7-oxo-1,6-diazabicyclo[3.2.1]octan-6-yl hydrogen sulfate] | more active than Avibactam | more active than Avibactam for at least one, bacterial strain that expresses KPC β-lactamase and/or show a better spectrum of activity
14 | O=C1N2C[C@@H](CC[C@H]2c2nnc(CN3CCNCC3)o2)N1OS(=O)(=O)O [Compound 777, (2S,5R)-7-oxo-2-(5-(piperazin-1-ylmethyl)-1,3,4-oxadiazol-2-yl)-1,6-diazabicyclo[3.2.1]octan-6-yl hydrogen sulfate] | more active than Avibactam | more active than Avibactam for at least one, bacterial strain that expresses KPC β-lactamase and/or show a better spectrum of activity
15 | N=C(N)NC1CC(Cc2nnc([C@@H]3CC[C@@H]4CN3C(=O)N4OS(=O)(=O)O)o2)C1 (stereo partly drawn) [Compound 752, (2S,5R)-2-(5-((3-guanidinocyclobutyl)methyl)-1,3,4-oxadiazol-2-yl)-7-oxo-1,6-diazabicyclo[3.2.1]octan-6-yl hydrogen sulfate] | more active than Avibactam | more active than Avibactam for at least one, bacterial strain that expresses KPC β-lactamase and/or show a better spectrum of activity
16 | NC1CC(NCc2nnc([C@@H]3CC[C@@H]4CN3C(=O)N4OS(=O)(=O)O)o2)C1 (stereo partly drawn) [Compound 755, (2S,5R)-2-(5-(((3-aminocyclobutyl)amino)methyl)-1,3,4-oxadiazol-2-yl)-7-oxo-1,6-diazabicyclo[3.2.1]octan-6-yl hydrogen sulfate] | more active than Avibactam | more active than Avibactam for at least one, bacterial strain that expresses KPC β-lactamase and/or show a better spectrum of activity
17 | O=C1N2C[C@@H](CC[C@H]2c2nnc(C3CCNCC3)o2)N1OS(=O)(=O)O [Compound 711, (2S,5R)-7-oxo-2-(5-(piperidin-4-yl)-1,3,4-oxadiazol-2-yl)-1,6-diazabicyclo[3.2.1]octan-6-yl hydrogen sulfate] | more active than Avibactam | more active than Avibactam for at least one, bacterial strain that expresses KPC β-lactamase and/or show a better spectrum of activity
